Experimental data taken from PMC7144022, “Quinolinecarboxamides Inhibit the Replication of the Bovine Viral Diarrhea Virus by Targeting a Hot Spot for the Inhibition of Pestivirus Replication in the RNA-Dependent RNA Polymerase” (Molecules, 2020).
Where “and” joins values, the source holds several entries; their conditions need not be identical. Identical values can stand only once.

What was measured:
[1] = tested on: panel of unrelated RNA and DNA viruses; experiment: Activity against a panel of unrelated RNA and DNA viruses; type: cell-based; settings: data not shown
BVDV NADL virus = experiment: CPE-based antiviral assay, BVDV NADL in MDBK cells (MTS/PMS); settings: Bovine viral diarrhea virus isolates and strains, MDBK, 72 h
[2] = tested on: classical swine fever virus (CSFV); type: cell-based
hepatitis C virus = experiment: In vitro activity against hepatitis C virus; type: cell-based
[3] = Cytotoxicity assay, proliferation of exponentially growing MDBK cells (MTS/PMS); type: cell-based, bovine; settings: bovine
Protocol: Assays were carried out, as described previously.

[4] = biological target: BVDV WT replication complexes (Bovine viral diarrhea virus, UniProt P19711); experiment: Replication complex (RC) assay, wild-type BVDV; type: biochemical; settings: for effect on activity of BVDV WT replication complexes: RCs isolated 14 h post-infection
Chain of BVDV WT replication complexes (P19711 3270-3988, one chain of several): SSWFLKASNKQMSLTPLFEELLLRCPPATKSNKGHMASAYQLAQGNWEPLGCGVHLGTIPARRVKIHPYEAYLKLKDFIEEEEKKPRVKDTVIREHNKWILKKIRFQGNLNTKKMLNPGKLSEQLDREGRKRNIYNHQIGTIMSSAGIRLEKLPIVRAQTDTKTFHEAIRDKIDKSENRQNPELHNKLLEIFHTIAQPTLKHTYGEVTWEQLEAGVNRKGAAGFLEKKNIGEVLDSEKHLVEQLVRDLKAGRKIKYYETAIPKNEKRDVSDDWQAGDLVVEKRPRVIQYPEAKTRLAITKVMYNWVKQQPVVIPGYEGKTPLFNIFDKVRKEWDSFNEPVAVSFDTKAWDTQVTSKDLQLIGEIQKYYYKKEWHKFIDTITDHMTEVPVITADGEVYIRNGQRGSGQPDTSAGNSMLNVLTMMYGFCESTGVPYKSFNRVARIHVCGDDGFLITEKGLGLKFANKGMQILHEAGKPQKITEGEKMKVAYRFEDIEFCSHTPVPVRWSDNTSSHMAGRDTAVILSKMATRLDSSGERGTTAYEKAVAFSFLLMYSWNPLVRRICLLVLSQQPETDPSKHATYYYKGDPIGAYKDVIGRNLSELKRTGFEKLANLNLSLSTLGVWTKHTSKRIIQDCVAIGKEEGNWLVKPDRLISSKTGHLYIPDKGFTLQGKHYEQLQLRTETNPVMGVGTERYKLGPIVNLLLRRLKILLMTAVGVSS
Protocol: (§1) The replication complex (RC) assay is similar to the one described before. In brief, BVDV-infected MDBK cells were suspended in an ice-cold hypotonic buffer A (10 mM Tris, 10 mM NaCl pH 7.8) and were further disrupted by 50 strokes with a Dounce homogenizer. The disrupted cells were pelleted by centrifugation at 1,000× g for 5 min at 4 °C. The supernatant fraction, containing cytoplasmic material and plasma membranes, was concentrated by high-speed centrifugation at 200,000× g for 20 min at 4 °C. The pellet was resuspended in 120 µL of hypotonic buffer B (10 mM Tris, 10 mM NaCl pH 7.8 and 15% glycerol) and used for an RNA polymerase assay. Replicase reactions were carried out, as described before, with some modifications. The [α-^33P]UTP (3,000 mCi/mmol) was replaced by [α-^33P]CTP (3,000 mCi/mmol). The following incubation, RNA extraction, RNA analysis, and quantification were performed, as previously described.

[5] = biological target: T1, BVDV (NADL) RNA-dependent RNA polymerase (RdRp) (Bovine viral diarrhea virus, UniProt P19711); experiment: RNA-dependent RNA polymerase assay, poly(C) template; type: biochemical; settings: purified RdRp, up to 500 µM
T1 construct: BVDV (NADL) RNA-dependent RNA polymerase (RdRp) was expressed and purified; made in house
T1 sequence (P19711 3270-3988): as the sequence (P19711 3270-3988, one chain of several) above
Protocol: BVDV (NADL) RNA-dependent RNA polymerase (RdRp) was expressed and purified, as described before. […] In brief, the purified BVDV polymerase (100 nM) was mixed with 100 µM GTP (containing 8.3 µM of [^3H]GTP, Perkin Elmer) and increasing concentration of the inhibitor (0.2 µM, 0.7 µM, 2 µM, 6 µM, 19 µM, 56 µM, 165 µM or 500 µM) in 50 mM Hepes pH 8.0, 10 mM KCl, 10 mM DTT, 1 mM MgCl2, 2mM MnCl2, and 0.5% igepal (Sigma). The enzyme mix and inhibitors were pre-incubated, in order to favor enzyme-inhibitor interactions before RNA binding. Reactions were started by the addition of 100 nM of poly(C) (about 500 nt in size) template. Reactions were incubated at 30 °C and stopped by addition of 50 mM EDTA. Samples were transferred onto DE-81 filters, washed with 0.3 M ammonium formate solution, and dried. Radioactivity bound to the filter was determined by liquid scintillation counting.

BVDV-1 (strain NADL) = experiment: microbe, parasite or virus in culture; type: cell-based, bovine viral diarrhea virus (BVDV); settings: Bovine viral diarrhea virus isolates and strains; RT-qPCR, MDBK cells
[6] = tested on: RCs from MDBK cells infected with the TO505-6180res virus; experiment: Replication complex (RC) assay, TO505-6180res BVDV; type: biochemical, bovine viral diarrhea virus (BVDV); settings: RCs from TO505-6180res infected MDBK cells
Protocol: as §1

| Compound | activity against a panel of unrelated RNA and DNA viruses [1] | EC50 (BVDV NADL virus) [nM] | inhibition of in vitro CSFV replication [2] | in vitro activity against hepatitis C virus (hepatitis C virus) | CC50 at 5 days [3] [nM] | effect on activity of BVDV WT replication complexes [4] | inhibition at 10 µM ([4]; at 10 µM, read-out: maximum inhibition of BVDV WT replication complex activity) [%] | effect on the activity of the viral polymerase [5] | EC50 (BVDV-1 (strain NADL)) | fold less susceptible than BVDV wt RCs [6] [fold] |
| --- | --- | --- | --- | --- | --- | --- | --- | --- | --- | --- |
| O=C(Nc1ccn(-c2ccccc2)n1)c1cc(-c2ccccc2)nc2ccccc12 [TO502-2403, 2-phenyl-N-(1-phenyl-1H-pyrazol-3-yl)-4-Quinolinecarboxamide] | inactive | 200 | inhibited | inactive | > 100000 | inhibited the activity of the BVDV WT replication complexes in a dose-dependent manner | ~90 | no effect | 60 nM and 50 nM |  |
| Cc1ccc2nc(NC(=O)c3cc(-c4ccco4)nc4ccccc34)sc2c1 [TO505-6180, 2-(2-furanyl)-N-(6-methyl-2-benzothiazolyl)-4-Quinolinecarboxamide] | inactive | 70 | inhibited | inactive | > 100000 | inhibited the activity of the BVDV wt RCs in a dose-dependent manner |  | no effect | 30 nM and 60 nM | 3 to 4 |
